From ChEMBL document CHEMBL1909046, “DrugMatrix in vitro pharmacology data”

What was measured:
[1] = target: 5-hydroxytryptamine receptor 1B (Rattus norvegicus, UniProt P28564); type: cell membranes, Wistar, Cerebral cortex, Membrane; also: in other assays of this panel Not Active means under 50% inhibition at 10 µM
Cytochrome P450 2E1 = Cytochrome P450 2E1 (Homo sapiens, UniProt P05181); details: bti-tn-5b1-4; also: in other assays of this panel Not Active means under 50% inhibition at 10 µM
[2] = target: Tyrosine-protein kinase Lck (Homo sapiens, UniProt P06239); assay: DRUGMATRIX: Protein Tyrosine Kinase, LCK enzyme inhibition (substrate: Poly(Glu:Tyr)); type: cell-based, Insect cells; details: insect cells; Not Active = under 50% inhibition at 10 µM
Estrogen receptor beta = Estrogen receptor beta (Homo sapiens, UniProt Q92731); details: sf9; also: in other assays of this panel Not Active means under 50% inhibition at 10 µM
[3] = target: T1, Nitric oxide synthase, inducible (Mus musculus, UniProt P29477); design: species or system Escherichia coli;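 also: inhibition of iNOS enzyme activity measured with L-arginine as substrate; in other assays of this panel Not Active means under 50% inhibition at 10 µM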
T1 sequence (P29477 whole entry): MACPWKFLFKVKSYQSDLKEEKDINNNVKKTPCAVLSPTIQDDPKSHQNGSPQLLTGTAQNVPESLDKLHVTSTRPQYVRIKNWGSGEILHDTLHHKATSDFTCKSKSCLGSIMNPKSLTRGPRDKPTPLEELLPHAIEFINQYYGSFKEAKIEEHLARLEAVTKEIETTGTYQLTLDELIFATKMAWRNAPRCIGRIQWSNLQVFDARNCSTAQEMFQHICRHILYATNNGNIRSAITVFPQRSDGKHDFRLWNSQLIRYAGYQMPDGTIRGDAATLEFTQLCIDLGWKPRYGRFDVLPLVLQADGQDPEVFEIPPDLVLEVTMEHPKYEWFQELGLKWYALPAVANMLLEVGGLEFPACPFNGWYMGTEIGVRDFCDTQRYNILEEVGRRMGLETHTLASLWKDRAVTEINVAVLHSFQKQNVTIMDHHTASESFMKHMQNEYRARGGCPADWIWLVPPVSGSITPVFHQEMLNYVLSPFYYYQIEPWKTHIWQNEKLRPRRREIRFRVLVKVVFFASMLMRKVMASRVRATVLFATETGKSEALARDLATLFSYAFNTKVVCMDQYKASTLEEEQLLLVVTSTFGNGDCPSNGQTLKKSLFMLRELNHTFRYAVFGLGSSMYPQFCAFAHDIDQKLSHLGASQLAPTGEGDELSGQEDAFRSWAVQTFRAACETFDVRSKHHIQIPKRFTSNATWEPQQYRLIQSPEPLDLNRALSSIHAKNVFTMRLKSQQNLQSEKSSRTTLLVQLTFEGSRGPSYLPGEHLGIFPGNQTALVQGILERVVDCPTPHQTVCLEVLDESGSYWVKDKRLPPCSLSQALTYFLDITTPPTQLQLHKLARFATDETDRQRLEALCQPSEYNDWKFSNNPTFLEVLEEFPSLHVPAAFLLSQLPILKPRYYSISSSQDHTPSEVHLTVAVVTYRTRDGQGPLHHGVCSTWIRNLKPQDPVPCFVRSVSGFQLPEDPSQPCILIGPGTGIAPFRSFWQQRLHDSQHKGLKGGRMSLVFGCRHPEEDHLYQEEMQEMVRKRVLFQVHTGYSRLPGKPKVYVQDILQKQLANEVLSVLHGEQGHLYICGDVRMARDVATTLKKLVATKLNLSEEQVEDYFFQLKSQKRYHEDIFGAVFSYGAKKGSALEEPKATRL

Substance-P receptor = Substance-P receptor (Homo sapiens, UniProt P25103); type: cell membranes, Membrane; details: cho; also: in other assays of this panel Not Active means under 50% inhibition at 10 µM
[4] = DRUGMATRIX: Phorbol Ester radioligand binding (ligand: [3H] PDBu); type: cell membranes, Mus musculus, ICR, Brain, Membrane; details: Not Active = under 50% inhibition at 10 µM
[5] = DRUGMATRIX: Glutamate, NMDA, Agonism radioligand binding (ligand: [3H] CGP-39653); type: cell membranes, Rattus norvegicus, Wistar, Cerebral cortex, Membrane; details: Not Active = under 50% inhibition at 10 µM

Sequence of Estrogen receptor beta (Q92731 whole entry): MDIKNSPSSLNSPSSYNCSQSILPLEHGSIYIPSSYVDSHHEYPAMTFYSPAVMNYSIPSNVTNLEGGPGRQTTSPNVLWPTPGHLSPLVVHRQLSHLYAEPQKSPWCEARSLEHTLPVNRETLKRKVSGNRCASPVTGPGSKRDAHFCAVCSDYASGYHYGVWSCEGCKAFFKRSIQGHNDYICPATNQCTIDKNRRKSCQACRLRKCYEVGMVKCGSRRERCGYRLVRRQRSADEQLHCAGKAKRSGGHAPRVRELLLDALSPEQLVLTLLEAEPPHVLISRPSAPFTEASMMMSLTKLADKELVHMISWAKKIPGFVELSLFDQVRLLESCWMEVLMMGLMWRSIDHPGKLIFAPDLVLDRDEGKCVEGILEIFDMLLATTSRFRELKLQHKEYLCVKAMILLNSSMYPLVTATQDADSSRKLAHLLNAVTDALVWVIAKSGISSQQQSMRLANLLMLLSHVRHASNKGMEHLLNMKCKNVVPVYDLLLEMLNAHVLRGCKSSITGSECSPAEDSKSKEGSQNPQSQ
Sequence of Cytochrome P450 2E1 (P05181 whole entry): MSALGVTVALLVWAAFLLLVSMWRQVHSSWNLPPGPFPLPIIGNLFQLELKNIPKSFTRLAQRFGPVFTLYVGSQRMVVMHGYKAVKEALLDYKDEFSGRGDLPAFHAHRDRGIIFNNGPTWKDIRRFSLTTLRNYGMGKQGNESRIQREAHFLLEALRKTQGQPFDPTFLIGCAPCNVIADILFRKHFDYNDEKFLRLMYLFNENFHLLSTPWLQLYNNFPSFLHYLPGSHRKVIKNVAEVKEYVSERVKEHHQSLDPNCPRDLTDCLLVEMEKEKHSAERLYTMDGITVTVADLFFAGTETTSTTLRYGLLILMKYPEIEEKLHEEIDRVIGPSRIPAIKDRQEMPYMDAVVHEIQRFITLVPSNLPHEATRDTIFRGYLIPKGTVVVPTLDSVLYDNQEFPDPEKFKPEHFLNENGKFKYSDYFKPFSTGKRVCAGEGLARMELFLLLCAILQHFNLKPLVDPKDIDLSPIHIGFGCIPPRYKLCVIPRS
Sequence of 5-hydroxytryptamine receptor 1B (P28564 whole entry): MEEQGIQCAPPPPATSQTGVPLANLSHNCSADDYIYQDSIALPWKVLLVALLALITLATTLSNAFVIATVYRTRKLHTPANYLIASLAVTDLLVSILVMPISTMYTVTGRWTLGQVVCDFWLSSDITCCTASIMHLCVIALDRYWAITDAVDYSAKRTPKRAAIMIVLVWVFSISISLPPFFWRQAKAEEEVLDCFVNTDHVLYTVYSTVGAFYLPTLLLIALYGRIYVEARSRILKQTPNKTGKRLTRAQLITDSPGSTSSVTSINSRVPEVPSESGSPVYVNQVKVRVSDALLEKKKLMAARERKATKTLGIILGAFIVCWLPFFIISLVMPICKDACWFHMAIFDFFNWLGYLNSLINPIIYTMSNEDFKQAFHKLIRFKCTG
Sequence of Substance-P receptor (P25103 whole entry): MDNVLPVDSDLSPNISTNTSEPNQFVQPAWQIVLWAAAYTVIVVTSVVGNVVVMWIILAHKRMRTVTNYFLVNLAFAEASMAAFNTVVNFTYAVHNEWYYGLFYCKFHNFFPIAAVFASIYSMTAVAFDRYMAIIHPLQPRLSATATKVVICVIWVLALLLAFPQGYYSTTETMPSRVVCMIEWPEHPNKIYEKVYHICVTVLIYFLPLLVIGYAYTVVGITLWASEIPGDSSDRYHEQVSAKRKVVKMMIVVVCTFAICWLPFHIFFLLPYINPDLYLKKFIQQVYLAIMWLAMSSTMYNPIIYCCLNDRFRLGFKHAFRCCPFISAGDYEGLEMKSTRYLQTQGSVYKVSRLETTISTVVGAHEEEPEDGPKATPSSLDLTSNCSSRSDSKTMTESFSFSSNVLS
Sequence of Tyrosine-protein kinase Lck (P06239 whole entry): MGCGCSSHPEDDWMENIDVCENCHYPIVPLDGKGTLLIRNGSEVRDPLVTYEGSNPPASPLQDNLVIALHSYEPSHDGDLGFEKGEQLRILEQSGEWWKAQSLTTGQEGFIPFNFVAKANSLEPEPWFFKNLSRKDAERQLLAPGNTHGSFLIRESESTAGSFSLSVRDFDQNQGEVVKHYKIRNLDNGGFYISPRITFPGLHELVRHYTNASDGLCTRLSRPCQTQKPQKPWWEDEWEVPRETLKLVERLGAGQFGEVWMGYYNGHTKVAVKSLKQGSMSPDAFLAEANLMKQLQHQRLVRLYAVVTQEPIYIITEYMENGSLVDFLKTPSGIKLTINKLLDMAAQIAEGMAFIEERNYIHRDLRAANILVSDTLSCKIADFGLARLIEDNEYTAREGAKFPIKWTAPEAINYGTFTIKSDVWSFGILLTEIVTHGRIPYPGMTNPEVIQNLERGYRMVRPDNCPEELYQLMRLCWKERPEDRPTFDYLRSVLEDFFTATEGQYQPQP

C=C1CC[C@H](O)C/C1=C/C=C1\CCC[C@]2(C)[C@@H]([C@H](C)CCCC(C)C)CC[C@@H]12 [CHOLECALCIFEROL]
Not Active: IC50 [1] | IC50 (Cytochrome P450 2E1) | Ki (Cytochrome P450 2E1) | IC50 [2] | IC50 (Estrogen receptor beta) | IC50 [3] | IC50 (Substance-P receptor) | IC50 [4] | Ki [4] | IC50 [5] | Ki [5]

CCOC(=O)C(C)(C)Oc1ccc(Cl)cc1 [CLOFIBRATE]
Not Active: IC50 [1] | IC50 (Cytochrome P450 2E1) | Ki (Cytochrome P450 2E1) | IC50 [2] | IC50 (Estrogen receptor beta) | IC50 [3] | IC50 (Substance-P receptor) | IC50 [4] | Ki [4] | IC50 [5] | Ki [5]

CC(=O)OCC(=O)[C@@]1(O)CC[C@H]2[C@@H]3CCC4=CC(=O)CC[C@]4(C)[C@H]3C(=O)C[C@@]21C [CORTISONE ACETATE]
Not Active: IC50 [1] | IC50 (Cytochrome P450 2E1) | Ki (Cytochrome P450 2E1) | IC50 [2] | IC50 (Estrogen receptor beta) | IC50 [3] | IC50 (Substance-P receptor) | IC50 [4] | Ki [4] | IC50 [5] | Ki [5]

O=c1ccc2ccccc2o1 [COUMARIN]
Not Active: IC50 [1] | IC50 (Cytochrome P450 2E1) | Ki (Cytochrome P450 2E1) | IC50 [2] | IC50 (Estrogen receptor beta) | IC50 [3] | IC50 (Substance-P receptor) | IC50 [4] | Ki [4] | IC50 [5] | Ki [5]

CN(C)/N=N/c1[nH]cnc1C(N)=O [DACARBAZINE]
Not Active: IC50 [1] | IC50 (Cytochrome P450 2E1) | Ki (Cytochrome P450 2E1) | IC50 [2] | IC50 (Estrogen receptor beta) | IC50 [3] | IC50 (Substance-P receptor) | IC50 [4] | Ki [4] | IC50 [5] | Ki [5]

COc1ccc2c(c1)[C@]13CCCC[C@@H]1[C@H](C2)N(C)CC3 [DEXTROMETHORPHAN]
Not Active: IC50 [1] | IC50 (Cytochrome P450 2E1) | Ki (Cytochrome P450 2E1) | IC50 [2] | IC50 (Estrogen receptor beta) | IC50 [3] | IC50 (Substance-P receptor) | IC50 [4] | Ki [4] | IC50 [5] | Ki [5]

COP(=O)(OC)OC=C(Cl)Cl [DICHLORVOS]
Not Active: IC50 [1] | IC50 (Cytochrome P450 2E1) | Ki (Cytochrome P450 2E1) | IC50 [2] | IC50 (Estrogen receptor beta) | IC50 [3] | IC50 (Substance-P receptor) | IC50 [4] | Ki [4] | IC50 [5] | Ki [5]

O=C(O)Cc1ccccc1Nc1c(Cl)cccc1Cl [DICLOFENAC]
Not Active: IC50 [1] | IC50 (Cytochrome P450 2E1) | Ki (Cytochrome P450 2E1) | IC50 [2] | IC50 (Estrogen receptor beta) | IC50 [3] | IC50 (Substance-P receptor) | IC50 [4] | Ki [4] | IC50 [5] | Ki [5]

C[C@H]1O[C@@H](O[C@H]2[C@@H](O)C[C@H](O[C@H]3[C@@H](O)C[C@H](O[C@H]4CC[C@@]5(C)[C@H](CC[C@@H]6[C@@H]5CC[C@]5(C)[C@@H](C7=CC(=O)OC7)CC[C@]65O)C4)O[C@@H]3C)O[C@@H]2C)C[C@H](O)[C@@H]1O [DIGITOXIN]
Not Active: IC50 [1] | IC50 (Cytochrome P450 2E1) | Ki (Cytochrome P450 2E1) | IC50 [2] | IC50 (Estrogen receptor beta) | IC50 [3] | IC50 (Substance-P receptor) | IC50 [4] | Ki [4] | IC50 [5] | Ki [5]
